This assay has as its system C3H10T1/2 embryonic mesenchymal stem cells. As to the kind of experiment: Adipogenesis of mesenchymal stem cells in adipogenic medium (adiponectin, PPARγ immunoblots, lipid granules). It is filed as cell-based. How it is done:
C3H10T1/2 embryonic mesenchymal stem cells were maintained in growth medium (α-MEM, 10% FBS, 100 µg/ml penicillin/streptomycin). Cells were plated at a density of 6,000-10,000 cells per cm^2 in collagen-I coated silicone membrane plates and cultured for two days before loading protocols began. Adipogenic medium included 0.1 μM dexamethasone, 5 μg/ml insulin, and in some cases, 50 μM indomethcin. If noted, MSC wee transfected with siRNA (100 nm) in serum-free OptiMEM overnight before replacing the medium. Multi-potential medium contained 50 μg/ml ascorbic acid, 1 μM β-glycerophosphate, 10 nM dexamethasone, nM all trans-retinoic acid, 5 μg/mi insulin, 0.5 mM 3-isobutyl-1-methylxanthine (IBMX).
Low Intensity Vibration (LIV): To deliver LIV to cultured MSC, an amplified loudspeaker generated controlled 90 Hz 0.6 g (where 1.0 g is Earth's gravitational field, or […]) standing wave accelerations/decelerations through the wells of culture dishes. Dishes were removed from the incubator during the loading periods (up to three times per day) and set on the lab-bench (control) or, for LIV, on the loudspeaker.
Western blotting: Details were as in Sen, et al. (Endocrinology 42:6065-6075 (2008)). Antibodies included those directed against active β-catenin (Upstate, Temecula, CA), total […] (BD, Bedford, MA), total-GSK3β Chemicon, Billerica, MA), aP2, PPARγ, adiponectin, COX2, NFATc1 and tubulin (Santa Cruz, CA). Densitometry was determined using NIH ImageJ, 1.37v.
Histochemical Staining: After fixation in 2% formaldehyde, cells were rinsed before staining for cytoplasmic triglyceride droplets with oil-red-O.
On the technique in general: Immunoblotting shows a protein as a band on a membrane.

As to `COc1ccc2c(c1)c(CC(=O)O)c(C)n2C(=O)c1ccc(Cl)cc1` [indonethacin], for the setting “added to adipogenic media, without it 7-8 days”, the “time to adipogenesis (rate of adipogenesis) after addition to adipogenic media” value fell in the range of 4 to 5 days.
Take `O=C1NC(=O)C(c2ccccc2[N+](=O)[O-])=C1Nc1ccc(O)c(Cl)c1` [SB415286]: the effect on adipogenesis entry (MSC in adipogenic medium) is reported as “prevention of adipogenesis”. Moreover, where the note is “MSC with siRNA targeting β-catenin (+siCat)”, the “effect on adipogenesis when β-catenin is knocked down” value is given as “blocked by targeting β-catenin”.

B1: DKK1: protein from R & D Systems added at doses known to inhibit Wnt binding Lrp receptors (protein, UniProt O94907 32-266, looked up)
Dickkopf-related protein 1: TLNSVLNSNAIKNLPPPLGGAAGHPGSAVSAAPGILYPGGNKYQTIDNYQPYPCAEDEECGTDEYCASPTRGGDAGVQICLACRKRRKRCMRHAMCCPGNYCKNGICVSSDQNHFRGEIEETITESFGNDHSTLDGYSRRTTLSSKMYHTKGQEGSVCLRSSDCASGLCCARHFWSKICKPVLKEGQVCTKHRRKGSHGLEIFQRCYCGEGLSCRIQKDHHQASNSSRLHTCQRH
B1: the “effect on LIV's ability to inhibit adipogenesis” value (added to LIV treated cultures at doses known to inhibit Wnt binding Lrp receptors) is reported as “failed to block LIV's ability to inhibit adipogenesis”.

(Values after US11918822B2, “Compositions and methods for enhancing the biological response to chemical agents and physical stimuli” (The Research Foundation for the State University of New York, priority 2010, dated 2024).)
